Experimental data from PMC10518717, “High-Throughput Screening and Proteomic Characterization of Compounds Targeting Myeloid-Derived Suppressor Cells” (Molecular & Cellular Proteomics : MCP, 2023).

Target: T1, NUP-MDSC cell lysate (Mus musculus, UniProt O70589)
T1 construct: endogenous in cells; host or cells: mouse NUP-MDSC (lysate)
T1 sequence (O70589 1-926): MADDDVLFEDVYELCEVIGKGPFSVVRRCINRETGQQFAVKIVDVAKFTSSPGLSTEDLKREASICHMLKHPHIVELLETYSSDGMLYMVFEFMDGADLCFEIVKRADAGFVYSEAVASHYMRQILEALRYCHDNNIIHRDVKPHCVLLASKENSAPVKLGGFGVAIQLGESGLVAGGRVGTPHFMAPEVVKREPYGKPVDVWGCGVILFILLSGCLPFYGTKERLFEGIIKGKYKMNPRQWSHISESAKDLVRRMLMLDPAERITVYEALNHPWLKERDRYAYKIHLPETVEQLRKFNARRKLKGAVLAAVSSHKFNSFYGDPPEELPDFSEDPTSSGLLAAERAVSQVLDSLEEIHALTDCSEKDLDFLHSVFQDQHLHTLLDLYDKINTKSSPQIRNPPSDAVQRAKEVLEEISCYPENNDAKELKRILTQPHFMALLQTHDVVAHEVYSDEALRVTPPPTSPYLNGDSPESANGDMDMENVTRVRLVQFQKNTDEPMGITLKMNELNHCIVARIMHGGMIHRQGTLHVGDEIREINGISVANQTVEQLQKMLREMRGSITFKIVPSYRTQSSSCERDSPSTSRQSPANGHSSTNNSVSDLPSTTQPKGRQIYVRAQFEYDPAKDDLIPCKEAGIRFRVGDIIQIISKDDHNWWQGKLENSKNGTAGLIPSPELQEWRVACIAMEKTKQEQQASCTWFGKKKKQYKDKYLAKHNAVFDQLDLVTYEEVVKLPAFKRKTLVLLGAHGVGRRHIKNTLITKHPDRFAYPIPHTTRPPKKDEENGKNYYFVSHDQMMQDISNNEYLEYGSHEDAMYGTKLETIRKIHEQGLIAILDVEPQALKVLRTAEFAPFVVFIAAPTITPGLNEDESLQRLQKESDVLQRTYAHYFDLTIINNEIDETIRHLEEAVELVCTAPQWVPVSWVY
Experiment: Solvent-induced protein precipitation profiling, proteome-wide
Format: binding
Conditions: protein Cask; soluble fraction; 26 uM
Protocol: NUP-MDSCs were differentiated as described above, washed twice with PBS, resuspended in lysis buffer (PBS, 0.4% IGEPAL CA-630, 1× Halt Protease-Inhibitor Cocktail (Thermo Fisher Scientific)), and subjected to three freeze-thaw cycles. The lysate was cleared by centrifugation for 30 min at 18,000g and 4 °C. The soluble fraction was diluted to 4 mg/ml and allowed to warm up to room temperature. Equal volumes of lysate were treated in triplicates with 100 x compound stock solutions (in DMSO) or DMSO for 15 min at room temperature (final concentrations: cmpd 2: 7.8 μM (3xEC50) and 26 μM (10xEC50), cmpd 3: 10 μM and 26 μM). Similar to a previous study ([46]), each sample was divided into eight aliquots to be denatured using different concentrations (8%, 10%, 12%, 14%, 16%, 18%, 20%, 22%) of acetone:ethanol:acetic acid (50:50:0.1) in water for 20 min at 37 °C with vigorous shaking. Aggregated proteins were separated by centrifugation for 45 min at 4 °C and 3900g. Next, equal amounts of the soluble fraction were pooled for subsequent proteomic analysis.
Methanol was added to 100 μg of the pooled supernatants to a final concentration of 70% and further processed according to the R2P1 protocol ([47]), with tryptic digestion performed in 50 mM Hepes (pH 8.5). Elution fractions were combined and dried by vacuum centrifugation. Dried samples were resuspended in deionized water, and TMT labeling was performed according to Zecha et al. ([35]). All 15 samples (5 treatment conditions in triplicates) were labeled with one TMTpro plex. Next, equal amounts were pooled and desalted by C18 solid-phase extraction cartridges (Sep-Pak Vac 1 cc C18 Cartridges, Waters Corp). Desalted peptides were chromatographically separated via basic reversed phase chromatography as previously described ([36]) into 24 fractions, dried down, and stored at −20 °C until further analysis.
Peptides were analyzed via LC-MS/MS on a Vanquish Neo UHPLC coupled to an Orbitrap Eclipse Tribrid mass spectrometer (Thermo Fisher Scientific). […] The mass spectrometer was operated in data-dependent mode and positive ionization mode. Samples were measured, employing a MS3 method with real-time search. […] Iontrap-MS2 spectra for peptide identification were acquired using HCD fragmentation with 35% NCE, an isolation window of 0.7 m/z, an AGC target value of 5e4 charges, and a maxIT of 35 ms. To obtain quantitative information on TMT reporter ions, each peptide precursor was fragmented again as for MS2 analysis followed by synchronous selection of the up to 10 most intense peptide fragments in the iontrap ([37]) and further fragmentation via HCD using an NCE of 55%. For the MS3 scan, real-time search was enabled to only trigger a MS3 scan for peptides that are TMT-labeled and can be identified (searched against a mouse database, same as used for maxquant processing). The MS3 scan was recorded in the OT at 30,000 resolution (scan range 110–500 m/z, isolation window of 0.7 m/z, AGC of 2e4 charges, maxIT of 120 ms). The cycle time was set to 3 s, and the dynamic exclusion lasted for 60 s.
Raw files were searched with Maxquant (v. 2.0.3.0) against the mouse reference proteome (UP000000589, canonical, download 10/2019, 55,029 entries) with standard settings for reporter ion MS3 unless described otherwise ([39]). Isotope impurities of the TMT lot were specified to allow MaxQuant the automated correction of TMT intensities. […] Trypsin/P was specified as the proteolytic enzyme with up to two missed cleavage sites allowed. […]

log2 FC cmpd2_26uM/cmpd3_26uM: 0.23
SMILES: CCOC(=O)c1nnn(-c2nn3nnnc3c3ccccc23)c1C [compound 2]
